The source of these data is ChEMBL document CHEMBL3352429, “A review on recent developments of indole-containing antiviral agents” (Eur J Med Chem, 2015).

Converted amounts (≈) assume the structure as drawn. Structures can show the parent of a compound that is named as a salt.

The subject of data set [1] is Human immunodeficiency virus 1. The data set is described as follows: Antiviral activity against wild type HIV1 3B infected in human C8166 cells assessed as cytopathic effect by counting the number of syncytia. The class given is functional, organism-based. To be noted: Human immunodeficiency virus 1, 3B. In general terms: Cytopathic effects are the visible damage that an infection or toxin causes in cultured cells.

The nature of data set [2]: Therapeutic index, ratio of CC50 for human C8166 cells to EC50 for HIV-1 3B. Format: cell-based. As to conditions: read-out: Ratio CC50/EC50.
For data set [3], the system named is Human alphaherpesvirus 2. Description: Antiviral activity against Herpes simplex virus type 2. Format: functional, organism-based.
In data set [4] the test system is Human alphaherpesvirus 1. Description: Antiviral activity against Herpes simplex virus type 1. Format: functional, organism-based.
Data set [5] deals with T1, Human immunodeficiency virus type 1 integrase (Human immunodeficiency virus 1, UniProt Q7ZJM1). Description: Inhibition of HIV-1 integrase strand transfer activity.
T1 sequence (Q7ZJM1 whole entry): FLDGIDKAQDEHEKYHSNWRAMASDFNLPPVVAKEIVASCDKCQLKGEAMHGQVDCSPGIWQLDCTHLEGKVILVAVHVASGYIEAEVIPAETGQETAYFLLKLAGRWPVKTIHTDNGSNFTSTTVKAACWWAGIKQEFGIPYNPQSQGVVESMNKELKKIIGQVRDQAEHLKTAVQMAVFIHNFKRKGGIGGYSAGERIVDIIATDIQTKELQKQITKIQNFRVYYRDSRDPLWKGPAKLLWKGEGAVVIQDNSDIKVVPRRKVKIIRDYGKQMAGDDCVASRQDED
Data set [6] has as its system Human immunodeficiency virus 1. The data set is described as follows: Antiviral activity against HIV1. Format: functional, organism-based.
Data set [7] deals with Human immunodeficiency virus 1. The data set is described as follows: Antiviral activity against HIV1 infected in human peripheral blood leukocyte cells assessed as inhibition of replication. The class given is functional, organism-based.
Data set [8] in a line: Cytotoxicity against human peripheral blood leukocyte cells at 100 uM. Format: cell-based.
Data set [9] concerns Human immunodeficiency virus 1. The data set is described as follows: Antiviral activity against wild type HIV1 3B infected in human MT-2 cells assessed as protection of infected cells by MTT colorimetric method. The class given is functional, organism-based. As to conditions: Human immunodeficiency virus 1, 3B, MT2.
Data set [10] concerns the target T1, Human immunodeficiency virus type 1 integrase. The data set is described as follows: Inhibition of HIV-1 integrase.
Data set [11] can be described thus: Inhibition of HIV-1 integrase LEDGF/p75 (unknown origin) interaction. More on the design: species or system Human immunodeficiency virus 1.
Data set [12] relates to Human immunodeficiency virus 1. The data set is described as follows: Antiviral activity against HIV-1 3B infected in human TZM-bl cells. To be noted: Human immunodeficiency virus 1, 3B. The class given is functional, organism-based.
Data set [13] in a line: Cytotoxicity against human TZM-bl cells. Format: cell-based.
The nature of data set [14]: Selectivity index, ratio of CC50 for human TZM-bl cells to EC50 for HIV-1 3B. The class given is toxicity, cell-based. To be noted: read-out: Ratio CC50/EC50.
Where [15] appears, read: read-out: ID50 (the source's name).

The EC50 is the concentration giving half of the maximal effect. Consider `Cc1cn(-c2ccc([N+](=O)[O-])cc2)c2ccccc12`, for which, in [1], the EC50 came to 7.88 µg/mL (≈ 31.2 µM). For the same compound, the selectivity ratio in data set [2] worked out at 24.6.
Regarding `O=C(/C=C/c1c[nH]c2c(O)cccc12)N/C=C/c1c[nH]c2ccccc12`, the IC50 in data set [3] (read-out: IC50) is 1000 nM.
Regarding `CC(C)CC(=O)[C@@H](O)Cc1c[nH]c2ccccc12`, the IC50 in data set [4] (setting [15]) worked out at 1.5 µg/mL (≈ 6.11 µM); in [3] (setting [15]), 1.5 µg/mL.
As to `COc1cccc2c1c(C(=O)/C=C(\O)C(=O)O)cn2Cc1cc(C)cc(C)c1`, the IC50 in data set [5] is 5490 nM. In [6], the response was half-maximal at 4630 nM (EC50).
Consider `O=[N+]([O-])c1ccc2c(ccn2-c2ccccc2[N+](=O)[O-])c1`, for which, in data set [1], the half-maximal effective concentration (EC50) came out at 7.88 µg/mL (≈ 27.8 µM). Further, the selectivity ratio in data set [2] came to 24.6.
Regarding `C[C@H]1c2nc(N)[nH]c2[C@]2(O)C[C@H]1c1c(-c3cnc(-c4c[nH]c5cc(Br)ccc45)c(=O)[nH]3)c[nH]c1C2=O`, the EC50 in [4] came to 95800 nM; in data set [6], 910 nM.
`COc1ccc2c(c1)N=CN1CCc3c([nH]c4ccccc34)C3=NCC[C@@]321` returned a half-maximal effective concentration (EC50) in data set [6] of 20 nM.
For the compound `CCNc1cccnc1N1CCN(C(=O)c2cc3cc(OC)ccc3[nH]2)CC1` [ATEVIRDINE MESYLATE], in data set [7], the IC50 is 1 nM. Moreover, in data set [8], the Activity stood at 50%.
Consider `O=C(/C=C/c1c[nH]c2ccccc12)N/C=C\c1c[nH]c2ccccc12` [CHONDRIAMIDE C], for which, in [3] (read-out: IC50), the IC50 is 1000 nM.
Consider `O=C(/C=C/c1c[nH]c2ccccc12)N/C=C/c1c[nH]c2ccccc12` [CHONDRIAMIDE A], for which the IC50 in data set [3] (read-out: IC50) was found to be 1000 nM.
In turn, `COc1ccc2c3c([nH]c2c1)C1=NCC[C@]12c1ccccc1N=CN2CC3` registered a half-maximal effective concentration (EC50) in data set [6] of 950 nM.
Regarding `O=c1ccn(CCOc2ccccc2Oc2cccc3[nH]ccc23)c(=O)[nH]1`, the EC50 in data set [9] worked out at 85 nM.
Consider `Cc1cc(C)cc(Cn2cc(C(=O)/C=C(\O)C(=O)O)c3c(O)cccc32)c1`, for which the IC50 in [10] amounted to 3500 nM.
As for `COc1cccc2c1c(C(=O)/C=C(\O)C(=O)O)cn2Cc1ccc(F)cc1`, the IC50 in [11] amounted to 36000 nM.
`O=[N+]([O-])c1ccccc1-n1ccc2ccccc21`: the EC50 in data set [1] was found to be 7.88 µg/mL (≈ 33.1 µM). The selectivity ratio in data set [2] worked out at 24.6.
Usually CC50 stands for the concentration that lowers cell viability or growth by half. Take `CCOC(=O)C(O)(c1c[nH]c2ccc([N+](=O)[O-])cc12)C(F)(F)F` (stereo not given): in data set [12], the EC50 came to 19 nM. In addition, the CC50 in [13] came to 211000 nM. The selectivity ratio in [14] worked out at 11.1.
